Source: patent US20150051206A1, “COMPOUNDS AND COMPOSITIONS AS C-KIT KINASE INHIBITORS” (IRM LLC, priority 2011, published 2015)

Target: T1, c-kit (Homo sapiens, UniProt P10721)
T1 construct: human Mo7e cells which endogenously express c-kit; endogenous in cells; host or cells: human Mo7e cells (promegakaryocytic leukemia line), stimulated with human recombinant SCF
Assay: Mo7e cell proliferation assay (SCF dependent proliferation)
Format: cell-based
Settings: Mo7e cells stimulated with human recombinant SCF, 48 hours
Experimental: Compounds of Formula (I) and Formula (II) provided herein were assayed to measure their capacity to inhibit c-kit and PDGFR kinases using the appropriate assay described below: c-Kit inhibition was evaluated using the Mo7e cell proliferation assay, and PDGFR inhibition was evaluated using the Rat A10 cell proliferation assay and the Human TG/HA-VSMC cell proliferation assay.
The compounds of Table 1 and Table 2 were tested for inhibition of SCF dependent proliferation using human Mo7e cells which endogenously express c-kit in a 384 well format. […] After 48 hours of incubation at 37° C., cell viability was measured by adding 25 uL of CellTiter Glo (Promega) to the cells and the luminescence was measured by a CLIPR CCD camera (Molecular Devices).
The IC50 value is given as that concentration of the test compound in question that provoke a response halfway between the baseline and maximum responses.

[1] = Table 2, 20% FBS instead of 1% FBS (values marked *)
[2] = Table 1, 20% FBS (values marked *)

T1 sequence (P10721 26-976): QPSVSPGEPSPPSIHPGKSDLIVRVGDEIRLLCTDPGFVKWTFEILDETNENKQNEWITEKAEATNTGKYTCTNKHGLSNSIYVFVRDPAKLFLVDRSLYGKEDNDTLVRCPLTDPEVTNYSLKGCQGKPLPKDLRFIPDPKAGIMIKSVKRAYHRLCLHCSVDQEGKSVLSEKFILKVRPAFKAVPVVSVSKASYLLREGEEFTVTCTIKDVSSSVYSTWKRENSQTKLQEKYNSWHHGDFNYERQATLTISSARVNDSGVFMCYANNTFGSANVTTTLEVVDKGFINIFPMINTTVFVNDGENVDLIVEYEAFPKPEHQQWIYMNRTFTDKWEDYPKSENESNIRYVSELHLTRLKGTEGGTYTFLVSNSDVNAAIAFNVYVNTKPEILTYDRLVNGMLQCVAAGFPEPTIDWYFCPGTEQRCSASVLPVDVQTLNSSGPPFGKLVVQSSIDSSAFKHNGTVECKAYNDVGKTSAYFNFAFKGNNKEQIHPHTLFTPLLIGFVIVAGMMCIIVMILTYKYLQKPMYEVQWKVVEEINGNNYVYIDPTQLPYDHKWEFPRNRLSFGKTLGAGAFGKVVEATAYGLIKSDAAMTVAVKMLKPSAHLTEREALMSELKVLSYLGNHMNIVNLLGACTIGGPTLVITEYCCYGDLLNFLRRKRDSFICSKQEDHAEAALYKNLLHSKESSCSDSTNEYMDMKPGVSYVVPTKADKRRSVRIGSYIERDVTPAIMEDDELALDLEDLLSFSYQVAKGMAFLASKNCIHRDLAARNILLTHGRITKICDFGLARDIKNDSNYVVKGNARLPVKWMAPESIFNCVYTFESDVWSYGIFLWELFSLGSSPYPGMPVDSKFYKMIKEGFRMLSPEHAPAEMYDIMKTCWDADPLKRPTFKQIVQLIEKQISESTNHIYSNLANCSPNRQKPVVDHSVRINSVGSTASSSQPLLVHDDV

`COc1cccc(F)c1-c1noc(-c2ccc(C)c(NC(=O)c3cnc4ccccn34)c2)n1` [F40, N-{5-[3-(2-fluoro-6-methoxyphenyl)-1,2,4-oxadiazol-5-yl]-2-methylphenyl}imidazo[1,2-a]pyridine-3-carboxamide] gave an IC50 (Table 2, 1% FBS) of 0.596 µM.
For `Cc1ccc(-c2nc(-c3cnccn3)no2)cc1NC(=O)c1cnc2ccccn12` [F25, N-{2-methyl-5-[3-(pyrazin-2-yl)-1,2,4-oxadiazol-5-yl]phenyl}imidazo[1,2-a]pyridine-3-carboxamide], the IC50 [1] was 0.424 µM.
For `Cc1ccc(-c2nc(-c3c(Cl)cccc3Cl)no2)cc1NC(=O)c1cnc2ccccn12` [F26, N-{5-[3-(2,6-dichlorophenyl)-1,2,4-oxadiazol-5-yl]-2-methylphenyl}imidazo[1,2-a]pyridine-3-carboxamide], the IC50 [1] was 0.845 µM.
With `Cc1ccc(Nc2noc(-c3nccn3C)n2)cc1NC(=O)c1cnc2ccccn12` [F16, N-(2-methyl-5-{[5-(1-methyl-1H-imidazol-2-yl)-1,2,4-oxadiazol-3-yl]amino}phenyl)imidazo[1,2-a]pyridine-3-carboxamide] the IC50 (Table 1, 1% FBS) was 0.027 µM.
In the case of `Cc1ccc(-c2noc(Cn3ccnc3C)n2)cc1NC(=O)c1cnc2ccccn12` [F60, N-(2-methyl-5-{5-[(2-methyl-1H-imidazol-1-yl)methyl]-1,2,4-oxadiazol-3-yl}phenyl)imidazo[1,2-a]pyridine-3-carboxamide], the IC50 (Table 2, 1% FBS) is reported as 0.445 µM.
`Cc1ccc(-c2nc(Cc3ccccc3)no2)cc1NC(=O)c1cnc2ccccn12` [F3, N-[5-(3-benzyl-1,2,4-oxadiazol-5-yl)-2-methylphenyl]imidazo[1,2-a]pyridine-3-carboxamide] was tested, and the IC50 [2] was 0.065 µM.
`Cc1ccc(-c2noc(-c3ccccc3N3CCOCC3)n2)cc1NC(=O)c1cnc2ccccn12` [F51, N-(2-methyl-5-{5-[2-(morpholin-4-yl)phenyl]-1,2,4-oxadiazol-3-yl}phenyl)imidazo[1,2-a]pyridine-3-carboxamide] was tested, and the IC50 [1] was 0.179 µM.
With `Cc1ccc(Nc2noc(-c3cscn3)n2)cc1NC(=O)c1cnc2ccccn12` [F15, N-(2-methyl-5-{[5-(1,3-thiazol-4-yl)-1,2,4-oxadiazol-3-yl]amino}phenyl)imidazo[1,2-a]pyridine-3-carboxamide] the IC50 (Table 1, 1% FBS) was 0.006 µM.
For `Cc1ccc(Nc2noc(-c3ncccn3)n2)cc1NC(=O)c1cnc2ccccn12` [F19, N-(2-methyl-5-{[5-(pyrimidin-2-yl)-1,2,4-oxadiazol-3-yl]amino}phenyl)imidazo[1,2-a]pyridine-3-carboxamide], the IC50 (Table 1, 1% FBS) was 0.082 µM.
For `COc1ccnc(-c2noc(-c3ccc(C)c(NC(=O)c4cnc5ccccn45)c3)n2)c1` [F33, N-{5-[3-(4-methoxypyridin-2-yl)-1,2,4-oxadiazol-5-yl]-2-methylphenyl}imidazo[1,2-a]pyridine-3-carboxamide], the IC50 [1] was 0.265 µM.
With `Cc1ccc(Nc2noc(-c3cnccn3)n2)cc1NC(=O)c1cnc2ccccn12` [F18, N-(2-methyl-5-{[5-(pyrazin-2-yl)-1,2,4-oxadiazol-3-yl]amino}phenyl)imidazo[1,2-a]pyridine-3-carboxamide] the IC50 (Table 1, 1% FBS) was 0.009 µM.
`Cc1ccc(-c2nc(-c3cccc(C(F)(F)F)c3)no2)cc1NC(=O)c1cnc2ccccn12` [F7, N-(2-methyl-5-{3-[3-(trifluoromethyl)phenyl]-1,2,4-oxadiazol-5-yl}phenyl)imidazo[1,2-a]pyridine-3-carboxamide] was tested, and the IC50 (Table 1, 1% FBS) was 0.069 µM.
Work on `Cc1ccc(-c2noc(-c3cccc(N4CCOCC4)c3)n2)cc1NC(=O)c1cnc2ccccn12` [F55, N-(2-methyl-5-{5-[3-(morpholin-4-yl)phenyl]-1,2,4-oxadiazol-3-yl}phenyl)imidazo[1,2-a]pyridine-3-carboxamide] yielded an IC50 [1] of 0.33 µM.
In the case of `Cc1ccc(-c2noc(-c3ccccn3)n2)cc1NC(=O)c1cnc2ccccn12` [F11, N-(2-methyl-5-(5-(pyridin-2-yl)-1,2,4-oxadiazol-3-yl)phenyl)imidazo[1,2-a]pyridine-3-carboxamide], the IC50 (Table 1, 1% FBS) is reported as 0.075 µM.
In the case of `Cc1ccc(Nc2noc(-c3ccccn3)n2)cc1NC(=O)c1cnc2ccccn12` [F21, N-(2-methyl-5-{[5-(pyridin-2-yl)-1,2,4-oxadiazol-3-yl]amino}phenyl)imidazo[1,2-a]pyridine-3-carboxamide], the IC50 (Table 1, 1% FBS) is reported as 0.008 µM.
`Cc1ccc(-c2noc(-c3ccc(N4CCN(C)CC4)cc3)n2)cc1NC(=O)c1cnc2ccccn12` [F54, N-(2-methyl-5-{5-[4-(4-methylpiperazin-1-yl)phenyl]-1,2,4-oxadiazol-3-yl}phenyl)imidazo[1,2-a]pyridine-3-carboxamide] was tested, and the IC50 (Table 2, 1% FBS) was 0.37 µM.
Compound `Cc1nc(-c2nc(-c3ccc(C)c(NC(=O)c4cnc5ccccn45)c3)no2)c(C(F)(F)F)o1` [F22, N-(2-methyl-5-{5-[2-methyl-5-(trifluoromethyl)-1,3-oxazol-4-yl]-1,2,4-oxadiazol-3-yl}phenyl)imidazo[1,2-a]pyridine-3-carboxamide] has an IC50 (Table 1, 1% FBS) of 0.032 µM.
For `COc1ccccc1Cc1noc(-c2ccc(C)c(NC(=O)c3cnc4ccccn34)c2)n1` [F45, N-(5-{3-[(2-methoxyphenyl)methyl]-1,2,4-oxadiazol-5-yl}-2-methylphenyl)imidazo[1,2-a]pyridine-3-carboxamide], the IC50 [1] was 0.116 µM.
Work on `Cc1ccc(-c2nc(-c3ccccc3)no2)cc1NC(=O)c1cnc2ccccn12` [F2, N-[2-methyl-5-(3-phenyl-1,2,4-oxadiazol-5-yl)phenyl]imidazo[1,2-a]pyridine-3-carboxamide] yielded an IC50 (Table 1, 1% FBS) of 0.016 µM.
For `Cc1ccc(-c2nc(-c3ccccc3)no2)cc1NC(=O)c1cnc2ccccn12` [F46, N-[2-methyl-5-(3-phenyl-1,2,4-oxadiazol-5-yl)phenyl]imidazo[1,2-a]pyridine-3-carboxamide], the IC50 (Table 2, 1% FBS) was 0.101 µM.
`Cc1ccc(-c2nc(-c3cnccc3C)no2)cc1NC(=O)c1cnc2ccccn12` [F34, N-{2-methyl-5-[3-(4-methylpyridin-3-yl)-1,2,4-oxadiazol-5-yl]phenyl}imidazo[1,2-a]pyridine-3-carboxamide] was tested, and the IC50 [1] was 0.139 µM.
Work on `Cc1ccc(-c2nc(Cc3ccccc3OC(F)(F)F)no2)cc1NC(=O)c1cnc2ccccn12` [F43, N-[2-methyl-5-(3-{[2-(trifluoromethoxy)phenyl]methyl}-1,2,4-oxadiazol-5-yl)phenyl]imidazo[1,2-a]pyridine-3-carboxamide] yielded an IC50 [1] of 0.289 µM.
With `Cc1ccc(-c2noc(Cn3cnnn3)n2)cc1NC(=O)c1cnc2ccccn12` [F59, N-{2-methyl-5-[5-(1H-1,2,3,4-tetrazol-1-ylmethyl)-1,2,4-oxadiazol-3-yl]phenyl}imidazo[1,2-a]pyridine-3-carboxamide] the IC50 (Table 2, 1% FBS) was 0.646 µM.
For `Cc1ccc(-c2nc(-c3ccc(OC(F)(F)F)cc3)no2)cc1NC(=O)c1cnc2ccccn12` [F72], the IC50 (Table 2, 1% FBS) was > 10 µM.
With `Cc1ccc(-c2noc(CCc3nn[nH]n3)n2)cc1NC(=O)c1cnc2ccccn12` [F67] the IC50 (Table 2, 1% FBS) was > 10 µM.
Work on `Cc1ccc(-c2nc(-c3ccc4c(c3)CCO4)no2)cc1NC(=O)c1cnc2ccccn12` [F5, N-{5-[3-(2,3-dihydro-1-benzofuran-5-yl)-1,2,4-oxadiazol-5-yl]-2-methylphenyl}imidazo[1,2-a]pyridine-3-carboxamide] yielded an IC50 [2] of 0.073 µM.
With `Cc1ccc(-c2nc(Nc3ccc(C)c(NC(=O)c4cnc5ccccn45)c3)no2)cn1` [F17, N-(2-methyl-5-{[5-(6-methylpyridin-3-yl)-1,2,4-oxadiazol-3-yl]amino}phenyl)imidazo[1,2-a]pyridine-3-carboxamide] the IC50 (Table 1, 1% FBS) was 0.002 µM.
For `Cc1ccc(-c2nc(-c3cccnc3)no2)cc1NC(=O)c1cnc2ccccn12` [F71], the IC50 (Table 2, 1% FBS) was > 10 µM.
`Cc1ccc(-c2nc(-c3ccc(C)c(NC(=O)c4cnc5ccccn45)c3)no2)cn1` [F50, N-{2-methyl-5-[5-(6-methylpyridin-3-yl)-1,2,4-oxadiazol-3-yl]phenyl}imidazo[1,2-a]pyridine-3-carboxamide] was tested, and the IC50 [1] was 0.85 µM.
Work on `Cc1ccc(-c2noc(-c3ccccc3N3CCN(C)CC3)n2)cc1NC(=O)c1cnc2ccccn12` [F52, N-(2-methyl-5-{5-[2-(4-methylpiperazin-1-yl)phenyl]-1,2,4-oxadiazol-3-yl}phenyl)imidazo[1,2-a]pyridine-3-carboxamide] yielded an IC50 (Table 2, 1% FBS) of 0.433 µM.
In the case of `Cc1ccc(-c2nc(-c3ccncc3)no2)cc1NC(=O)c1cnc2ccccn12` [F70], the IC50 (Table 2, 1% FBS) is reported as > 10 µM.
In the case of `Cc1ccc(-c2noc(-c3nccn3C)n2)cc1NC(=O)c1cnc2ccccn12` [F49, N-{2-methyl-5-[5-(1-methyl-1H-imidazol-2-yl)-1,2,4-oxadiazol-3-yl]phenyl}imidazo[1,2-a]pyridine-3-carboxamide], the IC50 (Table 2, 1% FBS) is reported as 0.232 µM.
`Cc1ccc(-c2nc(-c3cccc(F)c3)no2)cc1NC(=O)c1cnc2ccccn12` [F36, N-{5-[3-(3-fluorophenyl)-1,2,4-oxadiazol-5-yl]-2-methylphenyl}imidazo[1,2-a]pyridine-3-carboxamide] showed an IC50 [1] of 0.173 µM.
With `Cc1ccc(-c2nc(-c3cccnc3Cl)no2)cc1NC(=O)c1cnc2ccccn12` [F44, N-{5-[3-(2-chloropyridin-3-yl)-1,2,4-oxadiazol-5-yl]-2-methylphenyl}imidazo[1,2-a]pyridine-3-carboxamide] the IC50 [1] was 0.236 µM.
In the case of `Cc1ccc(-c2nc(-c3ccc(Cl)cc3)no2)cc1NC(=O)c1cnc2ccccn12` [F27, N-{5-[3-(4-chlorophenyl)-1,2,4-oxadiazol-5-yl]-2-methylphenyl}imidazo[1,2-a]pyridine-3-carboxamide], the IC50 [1] is reported as 0.274 µM.
`Cc1cccc(-c2noc(-c3ccc(C)c(NC(=O)c4cnc5ccccn45)c3)n2)n1` [F28, N-(2-methyl-5-(3-(6-methylpyridin-2-yl)-1,2,4-oxadiazol-5-yl)phenyl)imidazo[1,2-a]pyridine-3-carboxamide] showed an IC50 (Table 2, 1% FBS) of 0.252 µM.
